5 compounds from US9586962B2, “Disubstituted octahydropyrrolo [3,4-C] pyrroles as orexin receptor modulators” (Janssen Pharmaceutica NV, priority 2011, dated 2017) can be followed below.

Test [1] addresses T1, human orexin 2 receptor (Homo sapiens (Human), UniProt O43614). Put plainly: Human orexin 2 receptor radioligand binding ([3H]EMPA competition, HEK293 cells). The following applies: HEK293 cells expressing human orexin-2 receptor, read-out: OR 2 Ki.
Test [2] concerns the target T1, human orexin 2 receptor. As to the kind of experiment: Human orexin 2 receptor Ca2+ mobilization assay (FLIPR, PFSK cells, orexin B 100 nM). The test is classed as cell-based. To be noted: modified Cheng-Prusoff correction, read-out: OR 2 Kb.

T1 sequence (O43614 whole entry): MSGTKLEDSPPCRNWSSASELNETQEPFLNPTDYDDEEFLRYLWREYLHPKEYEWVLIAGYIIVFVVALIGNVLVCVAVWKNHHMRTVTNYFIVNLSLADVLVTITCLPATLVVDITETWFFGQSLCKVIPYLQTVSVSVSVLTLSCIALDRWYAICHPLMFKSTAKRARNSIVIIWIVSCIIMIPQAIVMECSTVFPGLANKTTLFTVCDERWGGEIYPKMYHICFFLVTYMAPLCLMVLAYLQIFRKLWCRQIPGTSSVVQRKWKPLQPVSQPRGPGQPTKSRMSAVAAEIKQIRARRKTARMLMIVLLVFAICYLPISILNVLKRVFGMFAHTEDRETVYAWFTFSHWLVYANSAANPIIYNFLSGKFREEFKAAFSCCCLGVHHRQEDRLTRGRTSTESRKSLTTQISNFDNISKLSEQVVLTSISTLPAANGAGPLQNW

On to `Cc1noc(-c2c(F)cccc2C(=O)N2CC3CN(c4ncc(F)c(C)n4)CC3C2)n1` (stereo not drawn) [Example 440, 2-{[3-Fluoro-2-(3-methyl-1,2,4-oxadiazol-5-yl)phenyl]carbonyl}-5-(5-fluoro-4-methylpyrimidin-2-yl)octahydropyrrolo[3,4-c]pyrrole], for which the Ki at human orexin 2 receptor [1] was found to be 64 nM. Moreover, at human orexin 2 receptor [2], the Kb is 15 nM.
For `Cc1cc(C)nc(N2CC3CN(C(=O)c4c(F)cccc4-c4ncco4)CC3C2)n1` (stereo not drawn) [Example 491, 2-(4,6-Dimethylpyrimidin-2-yl)-5-{[2-fluoro-6-(1,3-oxazol-2-yl)phenyl]carbonyl}octahydropyrrolo[3,4-c]pyrrole], the inhibition constant (Ki) at human orexin 2 receptor [1] turned out to be 16 nM.
The same measure, in the same setting: the figure for `Cc1cc(C)nc(N2CC3CN(C(=O)c4cc(F)ccc4-c4cccn4C)CC3C2)n1` (stereo not drawn) [Example 493, 2-(4,6-Dimethylpyrimidin-2-yl)-5-{[5-fluoro-2-(1-methyl-1H-pyrrol-2-yl)phenyl]carbonyl}octahydropyrrolo[3,4-c]pyrrole] is 10000 nM.
In the case of `Cc1cc(C)nc(N2CC3CN(C(=O)c4cc(F)ccc4-c4cscn4)CC3C2)n1` (stereo not drawn) [Example 494, 2-(4,6-Dimethylpyrimidin-2-yl)-5-{[5-fluoro-2-(1,3-thiazol-4-yl)phenyl]carbonyl}octahydropyrrolo[3,4-c]pyrrole], the inhibition constant (Ki) at human orexin 2 receptor [1] stood at 180 nM.
Still for that read-out and setting: the same measure for `Cc1nc(N2CC3CN(C(=O)c4cccc(F)c4-c4ncco4)CC3C2)ncc1F` (stereo not drawn) [Example 496, 2-(5-Fluoro-4-methylpyrimidin-2-yl)-5-{[3-fluoro-2-(1,3-oxazol-2-yl)phenyl]carbonyl}octahydropyrrolo[3,4-c]pyrrole]: 26 nM.

What is called Ki is the equilibrium dissociation constant of an inhibitor or competing ligand from its target.
